According to US9206177B2, “Substituted dimeric quinazoline-2,4-diones as FGF receptor agonists” (Sanofi, priority 2011, dated 2015):

Test system: human venous endothelial cells (HUVECs)
Experiment: In vitro angiogenesis model (pseudotubule length of HUVECs on matrigel/collagen)
Assay type: cell-based
Parameters: % activation with respect to FGF2 (in vitro): concentration or dose not given beside the values
Conditions: for EC50 / % activation with respect to FGF2 (in vitro): in vitro; for % activation with respect to FGF2 (in vitro): relative to FGF2; for active on the in vitro angiogenesis model: at a concentration of 10 nM
Experimental: In Vitro Angiogenesis Model
The products are tested for their ability to cause rearrangement of human venous endothelial cells (HUVECs) on matrigel (Becton dickinson 356230) diluted in collagen (rat tail collagen, type I: Becton dickinson 354236). After 24 hours, the cells are observed under a microscope with a ×4 objective and the length of the pseudotubules is measured by means of an image analyser (BIOCOM-logiciel Visiolab 2000).

Compound | EC50 (Homo sapiens, HUVEC) [nM] | % activation with respect to FGF2 (in vitro) [%] | EC50 [nM] | active on the in vitro angiogenesis model
CCN(CCCCCOc1ccc(-c2c(C)c(C(=O)c3ccc4c(=O)n(CC(=O)O)c(=O)[nH]c4c3)n3ccccc23)cc1)CCCCCOc1ccc(-c2c(C)c(C(=O)c3ccc4c(=O)n(CC(=O)O)c(=O)[nH]c4c3)n3ccccc23)cc1 [Compound 9, 2,2′-{(ethylimino)bis[pentane-5,1-diyloxybenzene-4,1-diyl(2-methylindolizine-1,3-diyl)carbonyl(2,4-dioxo-1,4-dihydroquinazoline-7,3(2H)-diyl)]}diacetic acid] | < 100 | 28 | – | –
Cc1c(-c2ccc(C(=O)NCCOCCOCCNC(=O)c3ccc(-c4c(C)c(C(=O)c5ccc6c(=O)n(CC(=O)O)c(=O)[nH]c6c5)n5ccccc45)cc3)cc2)c2ccccn2c1C(=O)c1ccc2c(=O)n(CC(=O)O)c(=O)[nH]c2c1 [Compound 17, 2,2′-{ethane-1,2-diylbis[oxyethane-2,1-diylcarbamoylbenzene-4,1-diyl(2-methylindolizine-1,3-diyl)carbonyl(2,4-dioxo-1,4-dihydroquinazoline-7,3(2H)-diyl)]}diacetic acid] | – | 44 | 10 | –
Cc1c(-c2ccc(C(=O)NCCOP(=O)(O)OCCNC(=O)c3ccc(-c4c(C)c(C(=O)c5ccc6c(=O)n(CC(=O)O)c(=O)[nH]c6c5)n5ccccc45)cc3)cc2)c2ccccn2c1C(=O)c1ccc2c(=O)n(CC(=O)O)c(=O)[nH]c2c1 [Compound 16, [7-({1-[4-({9-[4-(3-{[3-(carboxymethyl)-2,4-dioxo-1,4-dihydroquinazolin-7(2H)-yl]carbonyl}-2-methylindolizin-1-yl)phenyl]-4-hydroxy-4-oxido-9-oxo-3,5-dioxa-8-aza-4λ^5-phosphanon-1-yl}carbamoyl)phenyl]-2-methylindolizin-3-yl}carbonyl)-2,4-dioxo-1,4-dihydroquinazolin-3(2H)-yl]acetic acid] | < 1 | 82 | – | active
Cc1c(-c2ccc(OCCCCCN(CCCCCOc3ccc(-c4c(C)c(C(=O)c5ccc6c(=O)n(CC(=O)O)c(=O)[nH]c6c5)n5ccccc45)cc3)Cc3ccncc3)cc2)c2ccccn2c1C(=O)c1ccc2c(=O)n(CC(=O)O)c(=O)[nH]c2c1 [Compound 12, 2,2′-{[(pyridin-4-ylmethyl)imino]bis[pentane-5,1-diyloxybenzene-4,1-diyl(2-methylindolizine-1,3-diyl)carbonyl(2,4-dioxo-1,4-dihydroquinazoline-7,3(2H)-diyl)]}diacetic acid] | < 1 | 42 | – | –
Cc1c(-c2cccc(C(=O)NCCOCCOCCNC(=O)c3cccc(-c4c(C)c(C(=O)c5ccc6c(=O)n(CC(=O)O)c(=O)[nH]c6c5)n5ccccc45)c3)c2)c2ccccn2c1C(=O)c1ccc2c(=O)n(CC(=O)O)c(=O)[nH]c2c1 [Compound 18, 2,2′-{ethane-1,2-diylbis[oxyethane-2,1-diylcarbamoylbenzene-3,1-diyl(2-methylindolizine-1,3-diyl)carbonyl(2,4-dioxo-1,4-dihydroquinazoline-7,3(2H)-diyl)]}diacetic acid] | – | 85 | < 1 | –
Cc1c(-c2ccc(OCCCCCN(CCCCCOc3ccc(-c4c(C)c(C(=O)c5ccc6c(=O)n(CC(=O)O)c(=O)[nH]c6c5)n5ccccc45)cc3)CCN3CCOCC3)cc2)c2ccccn2c1C(=O)c1ccc2c(=O)n(CC(=O)O)c(=O)[nH]c2c1 [Compound 10, 2,2′-({[2-(morpholin-4-yl)ethyl]imino}bis[pentane-5,1-diyloxybenzene-4,1-diyl(2-methylindolizine-1,3-diyl)carbonyl(2,4-dioxo-1,4-dihydroquinazoline-7,3(2H)-diyl)])diacetic acid] | < 1 | 41 | – | –
Cc1c(-c2ccc(OCCOCCOCCOc3ccc(-c4c(C)c(C(=O)c5ccc6[nH]c(=O)n(CC(=O)O)c(=O)c6c5)n5ccccc45)cc3)cc2)c2ccccn2c1C(=O)c1ccc2[nH]c(=O)n(CC(=O)O)c(=O)c2c1 [Compound 3, 2,2′-{ethane-1,2-diylbis[oxyethane-2,1-diyloxybenzene-4,1-diyl(2-methylindolizine-1,3-diyl)carbonyl(2,4-dioxo-1,4-dihydroquinazoline-6,3(2H)-diyl)]}diacetic acid] | < 1 | 74 | – | active
Cc1c(-c2ccc(OCCCCCN(CCCCCOc3ccc(-c4c(C)c(C(=O)c5ccc6c(=O)n(CC(=O)O)c(=O)[nH]c6c5)n5ccccc45)cc3)Cc3ccc(N(C)C)cc3)cc2)c2ccccn2c1C(=O)c1ccc2c(=O)n(CC(=O)O)c(=O)[nH]c2c1 [Compound 13, 2,2′-({[4-(dimethylamino)benzyl]imino}bis[pentane-5,1-diyloxybenzene-4,1-diyl(2-methylindolizine-1,3-diyl)carbonyl(2,4-dioxo-1,4-dihydroquinazoline-7,3(2H)-diyl)])diacetic acid] | < 100 | 23 | – | –
Cc1c(-c2cccc(OCC(=O)NCCCCCCNC(=O)COc3cccc(-c4c(C)c(C(=O)c5ccc6[nH]c(=O)n(CC(=O)O)c(=O)c6c5)n5ccccc45)c3)c2)c2ccccn2c1C(=O)c1ccc2[nH]c(=O)n(CC(=O)O)c(=O)c2c1 [Compound 6] | – | 29 | < 100 | –
Cc1c(-c2ccc(OCCCCCN(CCCCCOc3ccc(-c4c(C)c(C(=O)c5ccc6c(=O)n(CC(=O)O)c(=O)[nH]c6c5)n5ccccc45)cc3)CCN3CCN(C)CC3)cc2)c2ccccn2c1C(=O)c1ccc2c(=O)n(CC(=O)O)c(=O)[nH]c2c1 [Compound 11, 2,2′-({[2-(4-methylpiperazin-1-yl)ethyl]imino}bis[pentane-5,1-diyloxybenzene-4,1-diyl(2-methylindolizine-1,3-diyl)carbonyl(2,4-dioxo-1,4-dihydroquinazoline-7,3(2H)-diyl)])diacetic acid] | < 1 | 63 | – | –
Cc1c(-c2ccc(OCC(=O)NCCCCNC(=O)COc3ccc(-c4c(C)c(C(=O)c5ccc6[nH]c(=O)n(CC(=O)O)c(=O)c6c5)n5ccccc45)cc3)cc2)c2ccccn2c1C(=O)c1ccc2[nH]c(=O)n(CC(=O)O)c(=O)c2c1 [Compound 5] | – | 30 | < 100 | –
Cc1c(-c2ccc(OCCCCCN(CCCCCOc3ccc(-c4c(C)c(C(=O)c5ccc6c(=O)n(CC(=O)O)c(=O)[nH]c6c5)n5ccccc45)cc3)CCOCCO)cc2)c2ccccn2c1C(=O)c1ccc2c(=O)n(CC(=O)O)c(=O)[nH]c2c1 [Compound 8, 2,2′-({[2-(2-hydroxyethoxy)ethyl]imino}bis[pentane-5,1-diyloxybenzene-4,1-diyl(2-methylindolizine-1,3-diyl)carbonyl(2,4-dioxo-1,4-dihydroquinazoline-7,3(2H)-diyl)])diacetic acid] | < 1 | 42 | – | –
Cc1c(NC(=O)c2cccc(OCC(=O)NCCNC(=O)COc3cccc(C(=O)Nc4c(C)c(C(=O)c5ccc6c(=O)n(CC(=O)O)c(=O)[nH]c6c5)n5ccccc45)c3)c2)c2ccccn2c1C(=O)c1ccc2c(=O)n(CC(=O)O)c(=O)[nH]c2c1 [Compound 20] | – | 61 | < 3 | –
Cc1c(-c2ccc(OCCCN3CCN(CCCOc4ccc(-c5c(C)c(C(=O)c6ccc7c(=O)n(CC(=O)O)c(=O)[nH]c7c6)n6ccccc56)cc4)CC3)cc2)c2ccccn2c1C(=O)c1ccc2c(=O)n(CC(=O)O)c(=O)[nH]c2c1 [Compound 15, 2,2′-{piperazine-1,4-diylbis[propane-3,1-diyloxybenzene-4,1-diyl(2-methylindolizine-1,3-diyl)carbonyl(2,4-dioxo-1,4-dihydroquinazoline-7,3(2H)-diyl)]}diacetic acid] | < 100 | 24 | – | –
CCN(CC)CCN(CCCCCOc1ccc(-c2c(C)c(C(=O)c3ccc4c(=O)n(CC(=O)O)c(=O)[nH]c4c3)n3ccccc23)cc1)CCCCCOc1ccc(-c2c(C)c(C(=O)c3ccc4c(=O)n(CC(=O)O)c(=O)[nH]c4c3)n3ccccc23)cc1 [Compound 14, 2,2′-({[2-(diethylamino)ethyl]imino}bis[pentane-5,1-diyloxybenzene-4,1-diyl(2-methylindolizine-1,3-diyl)carbonyl(2,4-dioxo-1,4-dihydroquinazoline-7,3(2H)-diyl)])diacetic acid] | < 1 | 62 | – | –
Cc1c(-c2cccc(OCC(=O)NCCCCNC(=O)COc3cccc(-c4c(C)c(C(=O)c5ccc6[nH]c(=O)n(CC(=O)O)c(=O)c6c5)n5ccccc45)c3)c2)c2ccccn2c1C(=O)c1ccc2[nH]c(=O)n(CC(=O)O)c(=O)c2c1 [Compound 7] | – | 28 | < 100 | –
Cc1c(-c2cccc(C(=O)NCCOP(=O)(O)OCCNC(=O)c3cccc(-c4c(C)c(C(=O)c5ccc6c(=O)n(CC(=O)O)c(=O)[nH]c6c5)n5ccccc45)c3)c2)c2ccccn2c1C(=O)c1ccc2c(=O)n(CC(=O)O)c(=O)[nH]c2c1 [Compound 19, [7-({1-[3-({9-[3-(3-{[3-(carboxymethyl)-2,4-dioxo-1,4-dihydroquinazolin-7(2H)-yl]carbonyl}-2-methylindolizin-1-yl)phenyl]-4-hydroxy-4-oxido-9-oxo-3,5-dioxa-8-aza-4λ^5-phosphanon-1-yl}carbamoyl)phenyl]-2-methylindolizin-3-yl}carbonyl)-2,4-dioxo-1,4-dihydroquinazolin-3(2H)-yl]acetic acid] | 3 | 35 | – | –
